# Source: patent US8247431B2, “Heterocyclic hydrazide compound and pesticidal use of the same” (Sumitomo Chemical Company, Limited, priority 2007, dated 2012)
# Legend:
# Assay type in all cases: in vivo
# [1] = system: diamondback moths (Plutella xylostella); experiment: Test Example 1: spray on cabbage, third-instar larvae of diamondback moths; conditions: 20 ml/cup spray on cabbage, 10 third-instar larvae, counted after 5 days; for pest or weed control at 500 ppm: Plutella xylostella, 120 h, 500 ppm active ingredient, read-out: controlling value
# Description: Then, it will be shown by Test Examples that the present compound is effective in controlling harmful arthropods. In the Test Example, controlling values were calculated by the following equation: Controlling value(%)={1−(Cb×Tai)/(Cai×Tb)}×100 wherein Cb: the number of worms in a non-treated section before treatment Cai: the number of worms in a non-treated section on observation Tb: the number of worms in a treated-section before treatment Tai: the number of worms in a treated-section on observation. Preparations of the test compounds obtained in Formulation Example 5 were diluted with water so that the active ingredient concentration became 500 ppm, to prepare test spray solutions. At the same time, cabbage was planted in a polyethylene cup, and grown until the third true leaf or the fourth true leaf was developed. The test spray solution as described above was sprayed in an amount of 20 ml/cup on the cabbage. After the spray solution on the cabbage was dried, 10 third-instar larvae of diamondback moths (Plutella xylostella) were put on the cabbage. After 5 days, the number of diamondback moths was counted, and the controlling value was calculated by the above equation. Furthermore, preparations of the test compound (7) and a comparative compound of the formula [drawing 523] obtained in a formulation according to Formulation Example 5 were diluted with water so that the active ingredient concentration became 0.2 ppm, to prepare test spray solution. At the same time, cabbage was planted in a polyethylene cup, and grown until the third true leaf or the fourth true leaf was developed. The test spray solution as described above was sprayed in an amount of 20 ml/cup on the cabbage. After the spray solution on the cabbage was dried, 10 third-instar larvae of diamondback moths (Plutella xylostella) were put on the cabbage. After 5 days, the number of diamondback moths was counted, and the controlling value was calculated by the above equation.
# [2] = system: Spodoptera litura; experiment: Test Example 3: spray on cabbage, fourth-instar larvae of Spodoptera litura; conditions: 120 h, 500 ppm active ingredient, 20 ml/cup spray on cabbage, 10 fourth-instar larvae, counted after 5 days, read-out: controlling value
# Description: Then, it will be shown by Test Examples that the present compound is effective in controlling harmful arthropods. In the Test Example, controlling values were calculated by the following equation: Controlling value(%)={1−(Cb×Tai)/(Cai×Tb)}×100 wherein Cb: the number of worms in a non-treated section before treatment Cai: the number of worms in a non-treated section on observation Tb: the number of worms in a treated-section before treatment Tai: the number of worms in a treated-section on observation. Preparations of the test compounds obtained in Formulation Example 5 were diluted with water so that the active ingredient concentration became 500 ppm to prepare test spray solutions. At the same time, cabbage was planted in a polyethylene cup, and grown until the third true leaf or the fourth true leaf was developed. The test spray solution as described above was sprayed in an amount of 20 ml/cup on the cabbage. After the spray solution sprayed on the cabbage was dried, 10 fourth-instar larvae of Spodoptera litura were put on the cabbage. After 5 days, the number of Spodoptera litura surviving on the cabbage leaves was counted, and a controlling value was calculated by the above equation.
# [3] = system: cotton aphids (Aphis gossypii); experiment: Test Example 2: spray on cucumber infested with cotton aphids; conditions: topical, 144 h, 500 ppm active ingredient, 20 ml/cup spray on cucumber, about 30 aphids, counted six days after spraying, read-out: controlling value
# Description: Then, it will be shown by Test Examples that the present compound is effective in controlling harmful arthropods. In the Test Example, controlling values were calculated by the following equation: Controlling value(%)={1−(Cb×Tai)/(Cai×Tb)}×100 wherein Cb: the number of worms in a non-treated section before treatment Cai: the number of worms in a non-treated section on observation Tb: the number of worms in a treated-section before treatment Tai: the number of worms in a treated-section on observation. Preparations of the test compounds obtained in Formulation Example 5 were diluted with water so that the active ingredient concentration became 500 ppm to prepare test spray solutions. At the same time, cucumber was planted in a polyethylene cup, and was grown until the first true leaf was developed. About 30 cotton aphids were put on the cucumber. One day after, the test spray solution as described above was sprayed in an amount of 20 ml/cup on the cucumber. Six days after spraying, the number of cotton aphids (Aphis gossypii) was counted, and a controlling value was calculated by the above equation.
# [4] = system: Adoxophyes orana fasciata; experiment: Test Example 4: spray on apple seedling, first-instar larvae of Adoxophyes orana fasciata; conditions: 168 h, 500 ppm active ingredient, 20 ml spray on apple seedling, about 30 first-instar larvae, counted seven days after spraying, read-out: controlling value
# Description: Then, it will be shown by Test Examples that the present compound is effective in controlling harmful arthropods. In the Test Example, controlling values were calculated by the following equation: Controlling value(%)={1−(Cb×Tai)/(Cai×Tb)}×100 wherein Cb: the number of worms in a non-treated section before treatment Cai: the number of worms in a non-treated section on observation Tb: the number of worms in a treated-section before treatment Tai: the number of worms in a treated-section on observation. Preparations of the test compounds obtained in Formulation Example 5 were diluted with water so that the active ingredient concentration became 500 ppm to prepare test spray solutions. At the same time, 20 ml of the test spray solution as described above was sprayed to an apple seedling (28 day-old seeding, tree height: about 15 cm) planted in a plastic cup. The apple seedling was air-dried to such an extent that the spray solution sprayed on the apple seedling was dried. About 30 first-instar larvae of Adoxophyes orana fasciata were released. Seven days after spraying, the number of worms surviving on the apple seedling was counted, and a controlling value was calculated by the above equation.
SMILES,pest or weed control at 500 ppm [1],pest or weed control at 500 ppm [2],pest or weed control at 500 ppm [3],pest or weed control at 500 ppm [4],control value ([1]; 0.2 ppm active ingredient)
"COC(=O)NNC(=O)c1cc(Cl)nc(Cl)c1NC(=O)c1cc(Br)nn1-c1ncccc1Cl [Compound 1, N′-(3-{[5-bromo-2-(3-chloro-pyridin-2-yl)-2H-pyrazole-3-carbonyl]-amino}-2,6-dichloro-pyridine-4-carbonyl)-hydrazinecarboxylic acid methyl ester]",≥ 90%,≥ 80%,≥ 90%,≥ 90%,–
"COC(=O)NNC(=O)c1nc(Cl)cc(C)c1NC(=O)c1cc(Br)nn1-c1ncccc1Cl [Compound 7, N′-(3-{[5-bromo-2-(3-chloro-pyridin-2-yl)-2H-pyrazole-3-carbonyl]-amino}-6-chloro-4-methyl-pyridine-2-carbonyl)-hydrazinecarboxylic acid methyl ester]",≥ 90%,≥ 80%,≥ 90%,≥ 90%,more than 80%
